How the values were obtained:
[1] = target: CLK3 (Homo sapiens, UniProt P49761); assay: KINOMEScan-based kinase selectivity assay; assay type: binding
Procedure: (§1) The KINOMEScan‐based kinase selectivity assay was performed at the DiscoverX Corporation (Fremont, CA, USA). The panel of growth inhibition assay and subsequent bioinformatics analysis (Fig EV1) were performed at Eurofins Inc. (St. […] Details of the procedures of cell proliferation assay, caspase‐3/7 activity assay, immunoblotting, and immunohistochemistry are described in Appendix Supplementary Methods.

[2] = target: T1, FLT3 D835H (Homo sapiens, UniProt P36888, D835H); assay: KINOMEScan-based kinase selectivity assay; assay type: binding
T1 construct: purchased DiscoverX Corporation (Fremont, CA, USA)
Procedure: as §1

[3] = target: CLK2 (Homo sapiens, UniProt P49760); assay: KINOMEScan-based kinase selectivity assay; assay type: binding
Chain of CLK2 (P49760 whole entry): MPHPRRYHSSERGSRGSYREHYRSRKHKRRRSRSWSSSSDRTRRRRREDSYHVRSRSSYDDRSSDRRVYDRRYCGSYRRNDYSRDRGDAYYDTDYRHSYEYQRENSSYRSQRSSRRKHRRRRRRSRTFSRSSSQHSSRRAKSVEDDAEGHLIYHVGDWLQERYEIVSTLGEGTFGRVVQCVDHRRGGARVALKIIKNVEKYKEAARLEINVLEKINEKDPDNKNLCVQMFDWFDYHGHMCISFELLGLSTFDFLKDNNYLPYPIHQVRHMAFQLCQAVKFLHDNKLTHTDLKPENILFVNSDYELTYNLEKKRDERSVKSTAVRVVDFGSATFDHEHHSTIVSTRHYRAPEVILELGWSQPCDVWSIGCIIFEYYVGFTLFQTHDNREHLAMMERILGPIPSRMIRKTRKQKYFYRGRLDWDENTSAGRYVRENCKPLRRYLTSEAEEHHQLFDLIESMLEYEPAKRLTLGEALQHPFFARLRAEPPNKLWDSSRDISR
Procedure: as §1

[4] = target: T2, ERK8 (Homo sapiens, UniProt Q8TD08); assay: KINOMEScan-based kinase selectivity assay; assay type: binding
T2 construct: purchased DiscoverX Corporation (Fremont, CA, USA)
T2 sequence (Q8TD08 whole entry): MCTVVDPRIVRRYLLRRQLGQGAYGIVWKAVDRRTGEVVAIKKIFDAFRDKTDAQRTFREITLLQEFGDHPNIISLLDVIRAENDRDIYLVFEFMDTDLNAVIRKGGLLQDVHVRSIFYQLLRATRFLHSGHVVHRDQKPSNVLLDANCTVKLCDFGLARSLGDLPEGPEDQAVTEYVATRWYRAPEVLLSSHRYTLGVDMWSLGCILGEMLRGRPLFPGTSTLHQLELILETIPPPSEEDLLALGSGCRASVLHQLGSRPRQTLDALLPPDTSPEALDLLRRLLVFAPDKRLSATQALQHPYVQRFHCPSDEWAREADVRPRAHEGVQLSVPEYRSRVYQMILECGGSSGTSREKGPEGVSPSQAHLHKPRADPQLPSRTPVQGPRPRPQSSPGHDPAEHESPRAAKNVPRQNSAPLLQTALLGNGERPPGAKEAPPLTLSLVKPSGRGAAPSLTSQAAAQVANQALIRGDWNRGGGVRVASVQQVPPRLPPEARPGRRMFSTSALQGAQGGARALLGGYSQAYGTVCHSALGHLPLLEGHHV
Procedure: as §1

[5] = target: T3, DYRK1A (Homo sapiens, UniProt Q13627); assay: KINOMEScan-based kinase selectivity assay; assay type: binding
T3 construct: purchased DiscoverX Corporation (Fremont, CA, USA)
Procedure: as §1

[6] = target: T4, IRAK4 (Homo sapiens, UniProt Q9NWZ3); assay: KINOMEScan-based kinase selectivity assay; assay type: binding
T4 construct: purchased DiscoverX Corporation (Fremont, CA, USA)
Procedure: as §1

[7] = target: T5, HIPK1 (Homo sapiens, UniProt Q86Z02); assay: KINOMEScan-based kinase selectivity assay; assay type: binding
T5 construct: purchased DiscoverX Corporation (Fremont, CA, USA)
T5 sequence (Q86Z02 whole entry): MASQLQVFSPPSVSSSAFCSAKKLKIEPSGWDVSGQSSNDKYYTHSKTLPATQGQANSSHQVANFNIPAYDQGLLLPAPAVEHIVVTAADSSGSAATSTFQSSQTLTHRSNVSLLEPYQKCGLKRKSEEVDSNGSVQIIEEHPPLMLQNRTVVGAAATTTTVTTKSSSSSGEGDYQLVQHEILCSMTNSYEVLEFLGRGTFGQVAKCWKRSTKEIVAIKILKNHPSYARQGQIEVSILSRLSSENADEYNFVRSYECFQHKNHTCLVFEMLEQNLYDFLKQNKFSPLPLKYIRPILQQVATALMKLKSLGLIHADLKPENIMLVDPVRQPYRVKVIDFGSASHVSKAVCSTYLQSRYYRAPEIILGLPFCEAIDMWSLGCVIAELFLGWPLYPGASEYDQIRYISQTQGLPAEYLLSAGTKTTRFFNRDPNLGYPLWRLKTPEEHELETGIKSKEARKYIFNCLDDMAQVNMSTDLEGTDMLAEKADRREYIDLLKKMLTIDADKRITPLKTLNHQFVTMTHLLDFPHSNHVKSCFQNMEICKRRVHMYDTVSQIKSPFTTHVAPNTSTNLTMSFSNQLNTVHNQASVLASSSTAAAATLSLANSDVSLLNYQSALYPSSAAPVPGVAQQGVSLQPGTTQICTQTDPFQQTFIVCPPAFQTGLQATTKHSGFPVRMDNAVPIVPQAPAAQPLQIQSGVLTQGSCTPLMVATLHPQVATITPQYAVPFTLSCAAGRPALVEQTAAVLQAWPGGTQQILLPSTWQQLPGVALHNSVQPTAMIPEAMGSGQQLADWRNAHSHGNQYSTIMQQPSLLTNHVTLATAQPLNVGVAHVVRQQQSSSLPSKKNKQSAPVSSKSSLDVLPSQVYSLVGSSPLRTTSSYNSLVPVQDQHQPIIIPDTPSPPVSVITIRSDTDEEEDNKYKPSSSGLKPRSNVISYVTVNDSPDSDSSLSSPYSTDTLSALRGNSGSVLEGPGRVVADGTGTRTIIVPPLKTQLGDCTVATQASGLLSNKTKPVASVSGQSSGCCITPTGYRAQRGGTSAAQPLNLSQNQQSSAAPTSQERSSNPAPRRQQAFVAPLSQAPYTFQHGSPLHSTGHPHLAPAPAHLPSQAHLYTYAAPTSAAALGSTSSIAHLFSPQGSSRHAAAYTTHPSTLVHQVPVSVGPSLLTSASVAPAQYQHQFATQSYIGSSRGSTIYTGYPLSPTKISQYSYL
Procedure: as §1

[8] = target: T6, CLK4 (Homo sapiens, UniProt Q9HAZ1); assay: KINOMEScan-based kinase selectivity assay; assay type: binding
T6 construct: purchased DiscoverX Corporation (Fremont, CA, USA)
T6 sequence (Q9HAZ1 whole entry): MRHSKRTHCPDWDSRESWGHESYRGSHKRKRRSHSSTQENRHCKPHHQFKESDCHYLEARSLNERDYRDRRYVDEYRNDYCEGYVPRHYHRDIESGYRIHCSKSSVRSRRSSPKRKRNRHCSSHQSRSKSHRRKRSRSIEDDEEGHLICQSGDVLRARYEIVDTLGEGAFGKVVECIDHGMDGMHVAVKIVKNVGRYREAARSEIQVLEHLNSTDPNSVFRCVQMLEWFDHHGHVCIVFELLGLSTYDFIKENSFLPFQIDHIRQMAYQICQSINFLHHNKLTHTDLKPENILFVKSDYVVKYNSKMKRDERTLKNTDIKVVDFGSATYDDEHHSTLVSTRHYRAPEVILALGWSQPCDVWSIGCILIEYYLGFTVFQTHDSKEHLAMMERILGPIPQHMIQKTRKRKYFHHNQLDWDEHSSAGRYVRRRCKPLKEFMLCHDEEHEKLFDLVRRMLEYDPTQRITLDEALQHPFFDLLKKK
Procedure: as §1

[9] = target: T7, DYRK2 (Homo sapiens, UniProt Q92630); assay: KINOMEScan-based kinase selectivity assay; assay type: binding
T7 construct: purchased DiscoverX Corporation (Fremont, CA, USA)
Procedure: as §1

[10] = target: T8, CLK1 (Homo sapiens, UniProt P49759); assay: KINOMEScan-based kinase selectivity assay; assay type: binding
T8 sequence (P49759 whole entry): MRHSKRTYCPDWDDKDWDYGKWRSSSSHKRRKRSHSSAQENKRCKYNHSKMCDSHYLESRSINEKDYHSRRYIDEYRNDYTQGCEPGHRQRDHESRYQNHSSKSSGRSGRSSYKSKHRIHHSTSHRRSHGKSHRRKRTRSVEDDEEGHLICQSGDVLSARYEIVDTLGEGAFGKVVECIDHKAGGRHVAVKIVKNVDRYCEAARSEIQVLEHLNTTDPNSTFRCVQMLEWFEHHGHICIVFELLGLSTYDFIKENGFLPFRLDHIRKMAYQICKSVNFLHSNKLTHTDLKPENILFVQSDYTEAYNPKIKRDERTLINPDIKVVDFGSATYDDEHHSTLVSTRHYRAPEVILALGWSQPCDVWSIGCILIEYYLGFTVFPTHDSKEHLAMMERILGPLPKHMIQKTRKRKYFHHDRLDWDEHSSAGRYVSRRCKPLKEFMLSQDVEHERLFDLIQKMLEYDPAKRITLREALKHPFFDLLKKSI
Procedure: as §1

[11] = target: T9, YSK4 (Homo sapiens, UniProt Q56UN5); assay: KINOMEScan-based kinase selectivity assay; assay type: binding
T9 construct: purchased DiscoverX Corporation (Fremont, CA, USA)
T9 sequence (Q56UN5 whole entry): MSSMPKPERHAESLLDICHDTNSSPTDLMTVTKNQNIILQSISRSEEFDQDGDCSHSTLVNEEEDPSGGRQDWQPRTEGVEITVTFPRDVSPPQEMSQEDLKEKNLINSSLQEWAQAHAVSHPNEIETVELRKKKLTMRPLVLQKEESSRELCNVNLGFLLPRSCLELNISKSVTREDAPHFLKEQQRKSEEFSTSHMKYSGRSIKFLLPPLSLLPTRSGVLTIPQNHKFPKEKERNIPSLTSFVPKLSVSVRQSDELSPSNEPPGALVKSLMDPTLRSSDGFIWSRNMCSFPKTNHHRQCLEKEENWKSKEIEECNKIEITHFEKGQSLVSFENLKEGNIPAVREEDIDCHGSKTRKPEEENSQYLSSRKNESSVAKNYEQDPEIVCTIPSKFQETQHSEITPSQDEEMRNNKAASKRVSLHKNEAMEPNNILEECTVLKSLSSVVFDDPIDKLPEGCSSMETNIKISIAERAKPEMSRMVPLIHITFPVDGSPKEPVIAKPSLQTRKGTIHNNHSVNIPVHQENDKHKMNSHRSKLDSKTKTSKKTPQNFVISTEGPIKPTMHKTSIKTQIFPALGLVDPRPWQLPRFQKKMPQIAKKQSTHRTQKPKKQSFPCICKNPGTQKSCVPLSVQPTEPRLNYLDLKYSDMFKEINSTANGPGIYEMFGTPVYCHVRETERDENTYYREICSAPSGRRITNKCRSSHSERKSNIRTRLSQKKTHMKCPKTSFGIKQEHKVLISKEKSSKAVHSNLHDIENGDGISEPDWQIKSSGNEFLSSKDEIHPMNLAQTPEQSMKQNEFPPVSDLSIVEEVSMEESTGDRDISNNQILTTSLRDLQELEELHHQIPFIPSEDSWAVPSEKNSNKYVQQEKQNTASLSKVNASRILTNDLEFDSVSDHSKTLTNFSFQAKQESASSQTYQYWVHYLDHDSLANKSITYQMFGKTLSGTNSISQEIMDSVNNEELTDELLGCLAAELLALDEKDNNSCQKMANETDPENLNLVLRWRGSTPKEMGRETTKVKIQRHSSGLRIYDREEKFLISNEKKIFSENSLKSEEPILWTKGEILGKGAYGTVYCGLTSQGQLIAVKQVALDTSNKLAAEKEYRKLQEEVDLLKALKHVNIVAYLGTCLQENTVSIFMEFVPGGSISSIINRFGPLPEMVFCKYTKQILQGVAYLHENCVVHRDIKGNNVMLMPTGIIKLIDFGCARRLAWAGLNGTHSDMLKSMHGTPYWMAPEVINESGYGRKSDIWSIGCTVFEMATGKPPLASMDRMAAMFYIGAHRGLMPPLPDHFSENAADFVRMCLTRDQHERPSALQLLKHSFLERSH
Procedure: as §1

[12] = system: MYC-driven breast tumor allograft; assay: Efficacy study in MMTV-MYC allograft model; assay type: in vivo, Balb/c nude mice; details: 50 mg/kg, twice daily on 2 days per week
Procedure: The transgenic MMTV‐MYC model was generated using the MMTV promoter as previously described (Muller et al, 1988) and was obtained from the Mouse Models of Human Cancer Consortium. The MYC‐driven breast tumor allograft model was established from a primary tumor of this model (females). Tumor cells were isolated using a cell strainer in the presence of RPMI. Viable cell count was determined, and 0.1 × 10^6 cells per mouse were subcutaneously injected in Balb/c nude animals (12‐week‐old females, Taconic Biosciences, Hudson, NY, USA) for subsequent propagation in the presence of Matrigel (BD, Franklin Lakes, NJ, USA) After two rounds of in vivo propagation, the tumor material was cryopreserved in liquid nitrogen. A small piece of the tumor was subcutaneously inoculated into Balb/c nude mice (7‐ to 8‐week‐old females), and the tumors were used for efficacy assessment.
(§2) Tumor volume=long diameter×short diameter×short diameter×(1/2)
(§3) Mice having a tumor of size approximately 200 mm^3 were used in efficacy or in vivo pharmacodynamics studies. T‐025 was dissolved in 0.5% methylcellulose solution. For the efficacy study, after randomized grouping, mice were treated with T‐025 twice daily once or twice weekly for 2 or 3 weeks. The mouse tumor volume and body weight were measured every 2–3 days.

[13] = system: MV-4-11 AML cell line xenografts; assay: Efficacy study in MV-4-11 xenograft model; assay type: in vivo, Balb/c nude mice; details: 37.5 and 50 mg/kg
Procedure: MDA‐MB‐468 (5 × 10^6), NCI‐H1048 (5 × 10^6), or MV‐4‐11 (2 × 10^6) cells in Matrigel were subcutaneously inoculated into the left flanks of Balb/c nude mice (7‐ to 8‐week‐old females). When xenografted tumors grew to a sufficient volume, the tumor diameter was measured and its volume was calculated as follows:
as §2, §3

[14] = Pharmacokinetics evaluation, unbound plasma concentration after oral administration; assay type: in vivo; details: nude mice, mean, calculated using protein binding
Procedure: The black dotted line indicates the relative ATP value prior to treatment (Day 0). • C The number of AS events modulated by T‐025 treatment for 6 h in MDA‐MB‐468 cells. The numbers of AS events with a BF > 20 and |ΔPSI| > 0.1 were counted and categorized according to the AS type (SE, skipped exon; RI, retained intron; A5′SS, alternative 5′‐splice‐site; A3′SS, alternative 3′‐splice‐site; MEE, mutually exclusive exon; AFE, alternative first exon; ALE, alternative last exon). • D–F MDA‐MB‐468 xenograft tumors treated with 50 mg/kg of T‐025 were sampled and analyzed by immunohistochemistry […], immunoblotting (E), or RT–PCR (F). Representative images of pCLK2 stained tumors and scale bar (30 μm) are shown. Also shown: The mean unbound plasma T‐025 concentration was calculated using protein binding after oral administration. • G, H Anti‐tumor efficacy of T‐025 in MDA‐MB‐468 xenograft models. T‐025 was administered twice daily on 2 days per week (red arrows). Tumor volume (G) and body weight (H) during the efficacy study are shown as means ± s.e.m. (n = 5). Data information: In (B, D, and F), data are shown as the means ± s.d. of three independent experiments (n = 3). In (G and H), an unpaired Student's t‐test was performed.Source data are available online for this figure. TEXT PRINTED IN THE PICTURE: (D) T-025: Unbound plasma Conc. (nmol/L): 554 (50 mg/kg; 2 h); Unbound plasma Conc. (nmol/L): 97 (50 mg/kg; 4 h); Unbound plasma Conc. (nmol/L): 105 (50 mg/kg; 8 h); Unbound plasma Conc. (nmol/L): 0 (50 mg/kg; 24 h)
Then, we evaluated T‐025 in an animal model.

[15] = system: xenografts derived from AML patient (PDX); assay: Efficacy study in patient-derived xenograft model of acute myeloid leukemia; assay type: in vivo, NOG mice; details: 25 and 50 mg/kg, twice daily at twice weekly
Description: To establish the patient‐derived xenograft model, a small piece of tumor purchased from Dr. Naoe at Nagoya University was subcutaneously inoculated into NOG mice (7‐ to 8‐week‐old females, CIEA Japan, Inc., Kanagawa, Japan). After three rounds of in vivo propagation, tumors were used for efficacy assessment.
as §2, §3

[16] = target: T8, CLK1; assay: Enzymatic assay; assay type: biochemical; details: read-out: IC50 (nmol/L) CLK1
Description: Appendix Supplemental Methods

Chain of CLK3 (P49761 whole entry): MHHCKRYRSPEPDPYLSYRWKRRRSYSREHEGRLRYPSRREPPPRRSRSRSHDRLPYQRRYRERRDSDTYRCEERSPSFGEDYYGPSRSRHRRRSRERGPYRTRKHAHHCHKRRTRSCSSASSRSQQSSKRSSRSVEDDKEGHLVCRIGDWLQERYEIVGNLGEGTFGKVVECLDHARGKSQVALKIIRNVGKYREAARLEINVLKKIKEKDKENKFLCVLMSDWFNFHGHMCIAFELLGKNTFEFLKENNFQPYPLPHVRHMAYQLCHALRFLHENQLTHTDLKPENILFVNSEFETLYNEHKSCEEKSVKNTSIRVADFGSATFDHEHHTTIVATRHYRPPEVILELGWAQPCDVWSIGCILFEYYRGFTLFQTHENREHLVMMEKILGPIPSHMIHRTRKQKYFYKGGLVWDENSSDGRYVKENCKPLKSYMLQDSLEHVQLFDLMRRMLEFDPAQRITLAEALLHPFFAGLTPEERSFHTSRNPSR

SMILES: CNc1nc(NCc2ncccn2)c2c(-c3ccc4ncccc4c3)c[nH]c2n1 [T-025, N ^2‐methyl‐N ^4‐[pyrimidin‐2‐ylmethyl]‐5‐[quinolin‐6‐yl]‐7H‐pyrrolo[2,3‐d]pyrimidine‐2,4‐diamine]
- Kd [1]: 6.5 nM
- inhibition at 0.3 µM ([1]; 300 nmol/L, n = 2): 90.2%
- Kd [2]: 94 nM
- inhibition at 0.3 µM ([2]; 300 nmol/L, n = 2): 98.8%
- Kd [3]: 0.096 nM
- inhibition at 0.3 µM ([3]; 300 nmol/L, n = 2): 93.1%
- Kd [4]: 140 nM
- inhibition at 0.3 µM ([4]; 300 nmol/L, n = 2): 94.8%
- Kd [5]: 0.074 nM
- inhibition at 0.3 µM ([5]; 300 nmol/L, n = 2): 100%
- Kd [6]: 54 nM
- inhibition at 0.3 µM ([6]; 300 nmol/L, n = 2): 94.8%
- Kd [7]: 55 nM
- inhibition at 0.3 µM ([7]; 300 nmol/L, n = 2): 94.6%
- Kd [8]: 0.61 nM
- inhibition at 0.3 µM ([8]; 300 nmol/L, n = 2): 100%
- Kd [9]: 32 nM
- inhibition at 0.3 µM ([9]; 300 nmol/L, n = 2): 98.6%
- Kd [10]: 4.8 nM
- inhibition at 0.3 µM ([10]; 300 nmol/L, n = 2): 99.4%
- Kd [11]: 33 nM
- inhibition at 0.3 µM ([11]; 300 nmol/L, n = 2): 97.5%
- anti-tumor efficacy, tumor growth [12]: strongly suppressed growth of the allograft tumors
- body weight loss [12]: without inducing body weight losses
- anti-tumor efficacy, tumor volume [13]: profound anti‐tumor efficacies
- Unbound plasma Conc. ([14]; oral 50 mg/kg, 8 h): 104 nM
- concentration at 2 h ([14]; nude, mouse, plasma, po, 50 mg/kg, 2 h, read-out: Unbound plasma Conc.): 554 nM
- concentration at 4 h ([14]; nude, mouse, plasma, po, 50 mg/kg, 4 h, read-out: Unbound plasma Conc.): 97 nM
- concentration at 8 h ([14]; nude, mouse, plasma, po, 50 mg/kg, 8 h, read-out: Unbound plasma Conc.): 105 nM
- concentration at 24 h ([14]; nude, mouse, plasma, po, 50 mg/kg, 24 h, read-out: Unbound plasma Conc.): 0 nM
- anti-tumor efficacy, tumor volume [15]: profound anti‐tumor efficacies
- IC50 [16]: 0.93 nmol/L

— PMC5991599, “Anti‐tumor efficacy of a novel CLK inhibitor via targeting RNA splicing and MYC‐dependent vulnerability” (EMBO Molecular Medicine, 2018)
